Measured values as given in publication PMC4122495, “Small Molecule Deubiquitinase Inhibitors Promote Macrophage Anti-Infective Capacity” (PLoS ONE, 2014).

How the values were obtained:
L. monocytogenes = assay: Bactericidal test on exponential-phase bacteria, 2 h at 4°C; assay type: cell-based, Listeria monocytogenes 10403S; conditions: concentrations up to 5 µM, exponential growth phase
Description: For bacterial growth curve in broth culture, an overnight culture of L. monocytogenes was back-diluted 1∶50 into BHI broth in the presence of 5 µM of compounds 1 to 4, 2.5 µM of compound 9 or equivalent volume of DMSO and incubated statically at 30°C for up to 8 h. At indicated time points (0, 2, 4, 6 and 8 h), a 50 µl-aliquot of bacteria was serially diluted and plated on LB agar to determine the number of CFU. To test the bactericidal properties of compound 9, an overnight culture of L. monocytogenes was back-diluted 1∶50 into BHI broth and allowed to grow at 37°C with shaking until an optical density at 600 nm (OD600) of ∼0.6–0.7 was obtained. Bacteria were then exposed to 1, 2.5 or 5 µM of compound 9 or equivalent volume of DMSO for 2 h at 4°C. After incubation, bacteria were serially diluted and plated on LB agar to determine CFU.

HG23 cells = assay: WST-1 cell viability assay in HG23 replicon cells; assay type: cell-based, human; conditions: 2.5 µM for 2 h, then 22 h
Description: For cell viability assays in conditions that mimicked the viral infections, RAW264.7 cells were cultured as described above and treated for 0.5 h with 5 µM WP1130 or 2.5 µM compound 9, incubated for 1 h on ice, washed three times with ice-cold PBS and incubated for an additional 8 h in presence of DMSO and WP1130 only. One and a half hours prior to the end of the experiment, the WST-1 reagent was diluted 1 in 10 in the media. For cell viability in HG23 replicon cells, DMSO and WP1130 remained on the cells for 24 h before incubation with the WST-1 reagent, whereas compound 9 was removed after a 2 h exposure and the WST-1 reagent added after an additional 22 h.

USP9x = system: USP9x; parameters: method as in Donato, N. J., manuscript in preparation; conditions: cell-based assay; ref Donato, N. J., manuscript in preparation; read-out: IC50 against USP9x; cited from earlier work
RAW264.7 cells = assay: WST-1 cell viability assay, conditions mimicking the bacterial infection protocol; assay type: cell-based, murine; conditions: 2.5 µM, 0.5 h pre-treatment, then 8 h
Description: For cell viability assays in conditions that mimicked the bacterial infection protocol, RAW264.7 cells were cultured at an initial density of 4×10^6 cells per 96-well plate. Cells were treated with 2.5 or 5 µM DUB inhibitors dissolved in DMSO for 0.5 h or 1 h or with equivalent volume of DMSO. DUB inhibitors were removed after treatment by washing three times with PBS, and cells were incubated in culture media for 6.5 h at 37°C. The WST-1 reagent (Roche, San Francisco, CA), which measures mitochondrial dehydrogenase activity, was diluted 1 in 10 in media and cells were incubated at 37°C for an additional 1.5 h. The optical density at 440 nm (OD440) and 600 nm (OD600) was determined and results were normalized to DMSO-treated cells.

In the case of `CCCC(NC(=O)/C(C#N)=C/c1nc(Cl)ccc1Cl)c1ccc(OCCN2CCOCC2)cc1` (stereo not shown) [Compound 9], the bactericidal activity (L. monocytogenes) is given as “No bactericidal activity”, the “toxicity (WST-1 viability)” value (HG23 cells) is given as “no toxicity” and the IC50 (USP9x) is given as 1800 nM. For the same compound, the “cellular toxicity (WST-1 viability)” value (RAW264.7 cells) was “little cellular toxicity”.
